Laboratory results: patent publication US10786475B2, “Method for preventing, treating, or improving fatty liver by administering effective amounts of azelaic acid to a subject” (Korea University Research and Business Foundation, priority 2018, dated 2020)

Assays:
[1] = test system: 3T3-L1 cells stimulated by LPS; assay: IL-6 and TNF-α gene expression (qPCR) in LPS-treated 3T3-L1 adipose cells; assay type: cell-based, mouse; conditions: LPS-treated 3T3-L1 cells differentiated into adipose cells, compared with control group
Experimental: 3T3-L1 cells, mouse pre-adipose cells were purchased from the Korean Cell Line Bank (Seoul, Korea). The 3T3-L1 cells were cultured in Dulbecco's modified Eagle's medium (DMEM) supplemented with 10% heat-inactivated bovine calf serum (Gibco, Grand Island, N.Y., USA) and 1% PEST under 5% CO2 at 37° C. The 3T3-L1 pre-adipose cells were seeded on a 6-well plate at 1×10^6 cells/well to differentiate into adipose cells, and cultured to a density of 100%. After 2 days, the cultured 3T3-L1 pre-adipose cells were incubated in DMEM containing 10% fetal bovine serum (FBS) and an MDI solution (0.5 mM IBMX, 0.5 μM dexamethasone and 10 μg/mL insulin) for 3 days. Subsequently, the treated cells were cultured in DMEM containing 10% FBS and 10 μg/mL insulin, and the formation of lipid droplets in cells and the degree thereof were confirmed, and based on this, the differentiation into adipose cells was confirmed. To confirm the expression of IL-6 and TNF-α genes, qRT-PCR was performed by the same methods described in Examples 7-4 and 7-5.

Hepa1c1c-7 cells = assay: Fatty acid oxidation rate ([1-14C]palmitate) in Hepa1c1c-7 cells; assay type: cell-based, mouse; conditions: 100 μM AzA, 24 hours, compared with control group
Experimental: Hepa1c1c-7 cells were seeded on a 24-well plate at 5×10^5 cells/mL, cultured for 24 hours, treated with 100 μM of AzA, and then incubated for 24 hours. Afterward, [1-^14C]palmitate was accumulated, the cells were cultured for one hour, and the medium was collected to extract CO2 using NaOH and HCl, followed by measuring ^14CO2 using a liquid scintillation counter. As a positive control, GW7647 (1 μM) was used.

[2] = test system: mouse primary hepatocytes; assay: Fatty acid decomposition gene markers in mouse primary hepatocyte; assay type: cell-based
Experimental: To reconfirm the liver tissue lipolytic effect of an AzA, an additional experiment was performed using a mouse primary hepatocyte. […] Therefore, it was reconfirmed that an AzA stimulates fatty acid oxidation, thereby treating/preventing a fatty liver lesion.

SMILES: O=C(O)CCCCCCCC(=O)O [AzA, nonanedioic acid]
- IL-6 gene expression [1]: significantly decreased
- fatty acid oxidation rate (Hepa1c1c-7 cells): significantly increased
- Acox1 gene marker [2]: significantly increases
- Cpt1a gene marker [2]: significantly increases
- Ppara gene marker [2]: significantly increases
